Results on 13 compounds are retold here after patent publication US20230000870A1, “METHODS OF TREATING CANCER IN BIOMARKER-IDENTIFIED PATIENTS WITH INHIBITORS OF CYCLIN-DEPENDENT KINASE 7 (CDK7)” (Syros Pharmaceuticals, Inc., priority 2019, published 2023).

The structures appear in SMILES notation.

For assay [1], the target named is CDK7/Cyclin H/MAT1 complex (Homo sapiens, UniProt P50613). The assay is described as follows: CDK7 kinase inhibition assay (Caliper/LabChip EZ Reader). It counts as biochemical. The note with it: CDK7/Cyclin H/MAT1 6 nM, ATP 2 mM, 35 min at 27° C. The method in brief:
(§1)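 Incubation times were set for ~20% (±5%) peptide phosphorylation by uninhibited enzyme: CDK7 35 min, CDK2 35 min (0.5 nM complex, 2 μM 5-FAM-CDK7tide, 2 mM MgCl2), CDK12 3 hr (50 nM, 2 μM 5-FAM-CDK9tide, 2 mM MgCl2), CDK9 15 min (8 nM, 2 μM 5-FAM-CDK9tide, 10 mM MgCl2). Read-out on LabChip EZ Reader, 27° C.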

For assay [2], the target named is T1, CDK12 (aa686-1082)/Cyclin K complex (Homo sapiens, UniProt Q9NYV4).
T1 construct: CDK12 (aa686-1082)/Cyclin K complex
T1 sequence (Q9NYV4 686-1082): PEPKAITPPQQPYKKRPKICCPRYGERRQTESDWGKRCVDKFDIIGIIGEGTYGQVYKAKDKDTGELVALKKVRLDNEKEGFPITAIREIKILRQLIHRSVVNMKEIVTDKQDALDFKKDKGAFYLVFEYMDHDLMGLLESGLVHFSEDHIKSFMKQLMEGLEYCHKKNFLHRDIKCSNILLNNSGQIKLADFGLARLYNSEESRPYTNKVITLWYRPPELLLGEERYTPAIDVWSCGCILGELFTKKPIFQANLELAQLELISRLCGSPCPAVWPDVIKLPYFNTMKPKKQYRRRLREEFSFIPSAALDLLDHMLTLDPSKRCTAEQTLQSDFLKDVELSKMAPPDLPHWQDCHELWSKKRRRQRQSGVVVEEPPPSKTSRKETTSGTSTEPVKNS
T1 sequence (O75909 whole entry partner, the tested form may be a part): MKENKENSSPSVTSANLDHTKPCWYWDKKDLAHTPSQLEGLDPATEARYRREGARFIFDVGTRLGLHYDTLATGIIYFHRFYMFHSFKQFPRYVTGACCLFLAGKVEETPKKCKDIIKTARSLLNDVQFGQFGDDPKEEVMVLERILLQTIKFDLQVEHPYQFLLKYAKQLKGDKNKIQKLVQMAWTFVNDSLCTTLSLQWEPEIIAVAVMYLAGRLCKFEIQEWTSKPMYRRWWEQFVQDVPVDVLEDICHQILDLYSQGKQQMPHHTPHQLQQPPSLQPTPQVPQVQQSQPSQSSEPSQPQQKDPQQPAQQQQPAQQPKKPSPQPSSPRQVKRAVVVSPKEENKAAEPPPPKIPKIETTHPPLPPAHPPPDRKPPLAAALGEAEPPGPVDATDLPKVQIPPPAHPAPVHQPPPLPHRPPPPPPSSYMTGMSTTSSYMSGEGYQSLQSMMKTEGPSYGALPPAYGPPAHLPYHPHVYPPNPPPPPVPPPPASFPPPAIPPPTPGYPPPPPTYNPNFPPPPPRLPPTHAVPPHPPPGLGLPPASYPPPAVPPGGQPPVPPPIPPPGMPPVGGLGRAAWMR
The assay is described as follows: CDK12 kinase inhibition assay (Caliper/LabChip EZ Reader). It counts as biochemical. As to conditions: CDK12 (aa686-1082)/Cyclin K 50 nM, ATP 2 mM, 3 hr at 27° C. The method in brief:
as §1

The next assay addresses CDK9/Cyclin T1 complex (Homo sapiens, UniProt P50750). In words: CDK9 kinase inhibition assay (Caliper/LabChip EZ Reader). In kind it is biochemical. The note with it: CDK9/Cyclin T1 8 nM, ATP 2 mM, 15 min at 27° C. The method in brief: as §1
The next assay deals with CDK2/Cyclin E1 complex (Homo sapiens, UniProt P24941). The assay is described as follows: CDK2 kinase inhibition assay (Caliper/LabChip EZ Reader). It counts as biochemical. As to conditions: CDK2/Cyclin E1 0.5 nM, ATP 2 mM, 35 min at 27° C. The method in brief: as §1
The subject of the next assay is HCC70 cells. The assay is described as follows: Inhibition of proliferation of HCC70 cells (CyQUANT Direct, 72 hour). In kind it is cell-based, human. As to conditions: read-out: Inhibition of Proliferation of HCC70 Cells (calculated IC50). Here is the method:
HCC70 cells: HCC70 cells are a cell line derived from human triple negative breast cancer. Representative compounds of the invention were tested at different concentrations (from 4 μM to […]; 0.5 log serial dilutions) for their ability to inhibit the proliferation of HCC70 cells. Known CDK inhibitors dinaciclib or N-((1S,3R)-3-((5-chloro-4-(1H-indol-3-yl) pyrimidin-2-yl)amino)cyclohexyl)-5-((E)-4-(dimethylamino)but-2-enamido)picolinamide and triptolide were used as positive controls. Cells were grown in ATCC-formulated RPMI-1640 Medium (ATCC 30-2001)+10% FBS. The cells were cultured at 37° C. in a humidified chamber in the presence of 5% CO2. Proliferation assays were conducted over a 72 hour time period. CyQUANT® Direct Cell Proliferation Assay (Life Technologies, Chicago, Ill. USA) was used to assess the anti-proliferative effects of the compounds following manufacturer's directions and utilizing the reagents supplied with the CyQUANT® Direct Cell kit.

Chain of CDK9/Cyclin T1 complex (P50750 whole entry): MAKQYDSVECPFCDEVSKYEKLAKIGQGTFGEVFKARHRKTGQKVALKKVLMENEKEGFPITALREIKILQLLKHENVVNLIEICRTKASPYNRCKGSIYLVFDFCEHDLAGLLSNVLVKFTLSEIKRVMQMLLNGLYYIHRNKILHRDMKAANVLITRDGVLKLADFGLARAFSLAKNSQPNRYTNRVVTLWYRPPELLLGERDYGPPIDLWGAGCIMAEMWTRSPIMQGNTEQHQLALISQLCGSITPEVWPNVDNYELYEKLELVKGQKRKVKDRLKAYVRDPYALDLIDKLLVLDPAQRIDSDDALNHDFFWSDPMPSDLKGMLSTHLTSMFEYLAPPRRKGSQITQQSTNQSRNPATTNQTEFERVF
Chain of CDK9/Cyclin T1 complex (O60563 whole entry partner): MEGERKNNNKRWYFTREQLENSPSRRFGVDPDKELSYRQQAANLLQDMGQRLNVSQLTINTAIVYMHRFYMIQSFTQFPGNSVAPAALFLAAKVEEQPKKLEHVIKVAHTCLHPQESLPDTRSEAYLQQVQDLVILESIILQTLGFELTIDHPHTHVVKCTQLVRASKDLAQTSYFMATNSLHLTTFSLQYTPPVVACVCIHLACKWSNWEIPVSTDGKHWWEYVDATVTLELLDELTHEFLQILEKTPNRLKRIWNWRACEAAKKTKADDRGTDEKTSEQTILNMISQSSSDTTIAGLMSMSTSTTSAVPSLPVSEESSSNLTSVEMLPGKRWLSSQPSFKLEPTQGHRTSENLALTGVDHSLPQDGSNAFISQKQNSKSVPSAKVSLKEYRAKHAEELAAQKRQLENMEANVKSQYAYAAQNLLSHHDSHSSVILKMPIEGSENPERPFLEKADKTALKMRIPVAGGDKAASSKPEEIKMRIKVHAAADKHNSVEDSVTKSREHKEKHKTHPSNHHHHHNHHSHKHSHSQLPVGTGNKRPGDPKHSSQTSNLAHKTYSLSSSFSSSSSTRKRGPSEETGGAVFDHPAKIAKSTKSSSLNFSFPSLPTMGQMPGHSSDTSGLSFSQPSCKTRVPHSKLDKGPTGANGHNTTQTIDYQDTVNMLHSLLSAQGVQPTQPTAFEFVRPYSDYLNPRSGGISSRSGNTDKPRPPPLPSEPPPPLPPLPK
Chain of CDK7/Cyclin H/MAT1 complex (P50613 whole entry): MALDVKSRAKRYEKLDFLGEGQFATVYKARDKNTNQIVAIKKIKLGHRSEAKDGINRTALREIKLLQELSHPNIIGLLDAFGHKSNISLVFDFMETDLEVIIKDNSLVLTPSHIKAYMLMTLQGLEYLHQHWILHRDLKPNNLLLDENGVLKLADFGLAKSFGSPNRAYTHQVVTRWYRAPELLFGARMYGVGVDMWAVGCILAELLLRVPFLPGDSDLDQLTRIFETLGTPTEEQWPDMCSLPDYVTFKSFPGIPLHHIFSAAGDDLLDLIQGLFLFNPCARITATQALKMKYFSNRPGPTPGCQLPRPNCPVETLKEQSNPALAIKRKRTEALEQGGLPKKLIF
Chain of CDK7/Cyclin H/MAT1 complex (P51946 whole entry partner): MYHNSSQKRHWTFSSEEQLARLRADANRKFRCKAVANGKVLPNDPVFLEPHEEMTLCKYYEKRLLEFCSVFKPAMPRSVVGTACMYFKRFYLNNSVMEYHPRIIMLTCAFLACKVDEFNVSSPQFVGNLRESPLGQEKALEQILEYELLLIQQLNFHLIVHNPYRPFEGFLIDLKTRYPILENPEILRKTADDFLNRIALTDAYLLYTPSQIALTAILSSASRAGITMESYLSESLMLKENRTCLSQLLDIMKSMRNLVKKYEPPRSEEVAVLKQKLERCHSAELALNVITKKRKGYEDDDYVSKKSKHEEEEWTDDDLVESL
Chain of CDK7/Cyclin H/MAT1 complex (P51948 whole entry partner): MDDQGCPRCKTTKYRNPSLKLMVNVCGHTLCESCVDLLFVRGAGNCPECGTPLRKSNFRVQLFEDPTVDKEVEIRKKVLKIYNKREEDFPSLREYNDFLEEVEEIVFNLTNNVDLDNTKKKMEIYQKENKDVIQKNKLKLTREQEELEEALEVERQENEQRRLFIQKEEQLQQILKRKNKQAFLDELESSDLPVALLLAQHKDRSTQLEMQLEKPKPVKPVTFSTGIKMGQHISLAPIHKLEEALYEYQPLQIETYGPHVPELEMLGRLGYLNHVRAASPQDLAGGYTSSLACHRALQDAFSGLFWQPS

For the compound `O=C(c1ccc2c(-c3nc(NC4CCCNC4)ncc3C(F)(F)F)c[nH]c2c1)N1CC(O)C(F)(F)C1` (centres unmarked) [Compound 349], the IC50 in assay [1] was below 20 nM; in assay [2], 0.2 to 5 µM; against CDK9/Cyclin T1 complex, 0.2 to 5 µM; against CDK2/Cyclin E1 complex, 0.2 to 5 µM; in the assay on HCC70 cells, 100 to 1000 nM.

With `O=C(O)c1ccc2c(-c3nc(NC4CCCNC4)ncc3C(F)(F)F)c[nH]c2c1` (centres unmarked) [Compound 306], the IC50 was 20 to 200 nM in assay [1]; 0.2 to 5 µM in assay [2]; at least 5 µM against CDK9/Cyclin T1 complex; 0.2 to 5 µM against CDK2/Cyclin E1 complex; 100 to 1000 nM in the assay with HCC70 cells.

As for `OCc1ncccc1-c1ccc2c(-c3nc(NC4CCCNC4)ncc3C(F)(F)F)c[nH]c2c1` (centres unmarked) [Compound 323], the IC50 in assay [1] was below 20 nM; in assay [2] it was 0.2 to 5 µM; against CDK9/Cyclin T1 complex, at least 5 µM; at CDK2/Cyclin E1 complex it was 0.2 to 5 µM; in the assay on HCC70 cells, 100 to 1000 nM.

On to `Cc1noc(C)c1-c1ccc2c(-c3nc(N[C@H]4CCCNC4)ncc3C(F)(F)F)c[nH]c2c1` [Compound 330], for which the IC50 is below 20 nM in assay [1]; 0.2 to 5 µM in assay [2]; 0.2 to 5 µM against CDK9/Cyclin T1 complex; 0.2 to 5 µM against CDK2/Cyclin E1 complex; below 100 nM with HCC70 cells.

Turning to `CCC1(O)CCN(C(=O)c2ccc3c(-c4nc(NC5CCCNC5)ncc4C(F)(F)F)c[nH]c3c2)C1` (centres unmarked) [Compound 309], the IC50 in assay [1] was 20 to 200 nM; in assay [2] it was 0.2 to 5 µM; against CDK9/Cyclin T1 complex, at least 5 µM; on CDK2/Cyclin E1 complex, at least 5 µM; in the assay on HCC70 cells it was 1000 to 5000 nM.

`CC1(C)CNC[C@@H](Nc2ncc(C(F)(F)F)c(-c3c[nH]c4cc(S(C)(=O)=O)ccc34)n2)C1` [Compound 376]: the IC50 in assay [1] is 20 to 200 nM; in assay [2] it was 0.2 to 5 µM; against CDK9/Cyclin T1 complex, at least 5 µM; at CDK2/Cyclin E1 complex it was 0.2 to 5 µM; with HCC70 cells it was 100 to 1000 nM.

With `CC(C)(C)OC(=O)N1CCC[C@H](Nc2ncc(C(F)(F)F)c(-c3c[nH]c4cc(P(C)(C)=O)ccc34)n2)C1` [Compound 352], the IC50 in assay [1] is at least 5000 nM; in assay [2] it was at least 5 µM; on CDK9/Cyclin T1 complex it was at least 5 µM; against CDK2/Cyclin E1 complex, at least 5 µM; in the assay with HCC70 cells, 1000 to 5000 nM.

Regarding `N#Cc1ccc2c(-c3nc(NC4CNCC(F)C4)ncc3C(F)(F)F)c[nH]c2c1` (centres unmarked) [Compound 368], the IC50 was 20 to 200 nM in assay [1]; 0.2 to 5 µM in assay [2]; at least 5 µM against CDK9/Cyclin T1 complex; at least 5 µM against CDK2/Cyclin E1 complex; 1000 to 5000 nM with HCC70 cells.

With `CC(C)S(=O)(=O)c1ccc2c(-c3nc(NC4CCCNC4)ncc3C(F)(F)F)c[nH]c2c1` (centres unmarked) [Compound 346], the IC50 in assay [1] was 20 to 200 nM; in assay [2], 0.2 to 5 µM; against CDK9/Cyclin T1 complex it was 0.2 to 5 µM; against CDK2/Cyclin E1 complex, 0.2 to 5 µM; with HCC70 cells, 100 to 1000 nM.

Consider `O=S1(=O)CCn2cc(-c3nc(N[C@H]4CCCNC4)ncc3C(F)(F)F)c3cccc1c32` [Compound 348], for which the IC50 in assay [1] was 20 to 200 nM; in assay [2], at least 5 µM; against CDK9/Cyclin T1 complex it was at least 5 µM; on CDK2/Cyclin E1 complex, at least 5 µM; in the assay with HCC70 cells, 100 to 1000 nM.

In the case of `CNC(=O)c1cccc2c(-c3nc(NC4CCCNC4)ncc3C(F)(F)F)cn(COC)c12` (centres unmarked) [Compound 304], the IC50 in assay [1] was at least 5000 nM; in assay [2], at least 5 µM; at CDK9/Cyclin T1 complex it was at least 5 µM; at CDK2/Cyclin E1 complex, at least 5 µM; in the assay with HCC70 cells it was 1000 to 5000 nM.

For `CCN1CCCC(Nc2ncc(C(F)(F)F)c(-c3c[nH]c4cc(S(C)(=O)=O)ccc34)n2)C1` (centres unmarked) [Compound 298], the IC50 was below 20 nM in assay [1]; 0.2 to 5 µM in assay [2]; at least 5 µM at CDK9/Cyclin T1 complex; 0.2 to 5 µM against CDK2/Cyclin E1 complex; 100 to 1000 nM in the assay with HCC70 cells.

In the case of `O=C1CCN(C(=O)c2ccc3c(-c4nc(NC5CCCNC5)ncc4C(F)(F)F)c[nH]c3c2)C1` (centres unmarked) [Compound 302], the IC50 was 20 to 200 nM in assay [1]; 0.2 to 5 µM in assay [2]; 0.2 to 5 µM on CDK9/Cyclin T1 complex; 0.2 to 5 µM at CDK2/Cyclin E1 complex; 100 to 1000 nM in the assay on HCC70 cells.
